From patent US20090053138A1, “Stabilized Aptamers to Platelet Derived Growth Factor and their Use as Oncology Therapeutics” (priority 2002, published 2009)
Read-outs that look alike come from different tables or passages of the source. {PEG40k} = 40 kDa polyethylene glycol; [invdT] = inverted (3'-3') thymidine; [HEG] = hexaethylene glycol spacer

Legend:
Lewis lung carcinoma = assay: Mouse Lewis lung carcinoma model; details: scrambled aptamer 50 mg/kg
Source text: A 1 mm^3 piece of Lewis lung carcinoma was implanted under the dorsal skin of wild-type C57BL/6 mice and allowed to grow. […] At the end of the seven day period, the mice were anesthetized, and the following tissues were fixed by vascular perfusion with 1% paraformaldehyde, removed and frozen for cryotstat sectioning: tumor (Lewis lung carcinoma), pancreas, liver, kidney, trachea, spleen, jejunum, and thyroid tissue. The resulting slides were stained with antibodies against various markers as described below.
Sections of tumors were cut (80 μm) and stained with either anti-CD31 or anti-α smooth muscle actin (“α-SMA”) antibodies. Digital fluorescence microscopic images were obtained for area density measurements by using a CoolCam low-light 3-chip RGB CCD camera. […] In addition, the tumors were imaged by confocal microscopy. […]
Sections of tumors were cut (80 μm) and stained with either anti-CD31 or anti-type IV collagen antibodies. Digital fluorescence microscopic images were obtained for area density measurements by using a CoolCam camera. […]
Pericyte expression was measured using the Cool Cam and confocal images were also taken.
The extent of pericyte colocalization with endothelial cells was then measured on digital Cool Cam images.
The extent of pericyte colocalization with endothelial cells was measured on digital CoolCam images. […]

[1] = Pharmacokinetics of ARC126 5′ PEG conjugates in mice
Source text: (§1) The pharmacokinetic (PK) data shown in FIG. 12A was subjected to non-compartmental analysis (NCA) using the industry-standard software package WinNonLin™ v.4.0 (Pharsight Corp., Mountain View, Calif.). […] The pharmacokinetic (PK) data shown in FIG. 12B was subjected to noncompartmental analysis (NCA) using the industry-standard software package WinNonLin™ v.4.0 (Pharsight Corp., Mountain View, Calif.).
(§2) The pharmacokinetic (PK) data shown in FIG. 12B was subjected to noncompartmental analysis (NCA) using the industry-standard software package WinNonLin™ v.4.0 (Pharsight Corp., Mountain View, Calif.).

[2] = test system: LS174T colon cancer xenograft
Source text: Experimental overview. Human HT-29 or LS174T colon cancer xenotransplants were established in athymic nude mice (Nu/Nu mice, Charles River Labs, Wilmington, Mass.) by injecting mice with 1×10^7 HT29 cells (ATCC, Manassas, Va.), or 2×10^6 LS174T cells (ATCC Manassas, Va.) sub-cutaneously and allowing the tumors to grow for 5 days. On day 5, two dimensional measurements of the established tumors were taken using a digital caliper. Once tumor measurements were taken, the mice were randomized into groups such that the average tumor size was the same in each group. […]
A third experiment (Experiment 3) was designed to test ARC308/irinotecan and GLEEVEC™/irinotecan dosing regimens in a colon cancer xenotransplant model using human colon carcinoma cell line LS174T (ATCC). […] ARC308 was dosed via intraperitoneal delivery at 50 mg/kg once daily, and GLEEVEC™ was dosed at 50 mg/kg once daily, Monday through Friday. ARC308 prevents PDGF-BB from binding the PDGF receptor; this molecule has a 30K PEG attached. […] The results are statistically significant (two tailed students T-test).
An efficacy analysis of three treatment groups in this study is shown in Table 10 in terms of log cell kill and log cell kill net. Log cell kill is the log(base10) of the number of tumor cells before treatment divided by the number of cells after treatment. […] A fourth experiment (Experiment 4) was designed to further test ARC308/irinotecan dosing regimens in a colon cancer xenotransplant model using human colon carcinoma cell line LS174T (ATCC). […]

PDGF = assay: PDGF-driven Elk Luciferase reporter gene assay; assay type: cell-based; details: PDGF 50 ng/ml, 3T3 cells
Description: 10,000 3T3 cells/well were plated in DMEM/10% FBS in a 96 well plate. They were transfected using FuGene (Roche, Indianapolis, Ind.) at 3:1 ratio with 5 ng of ELK-1 (Stratagene, La Jolla, Calif.) and 20 ng of pFR-Luciferase plasmids (Stratagene, La Jolla, Calif.). When PDGF is added at a final concentration of 50 ng/ml to 3T3 cells, an increase in the Luciferase signal can be observed which corresponds to the effect of the mitogen on the reporter gene. Steady Glo Luciferase assay (Promega, Madison, Wis.) was used to detect luciferase. […] (FIG. 17.)

[3] = mouse, in vivo, 10 mg/kg
Source text: as §1, §2

PDGF BB = PDGF BB (Homo sapiens, UniProt P01127); details: in vivo, iv, 10 mg/kg
Description: As a secondary test of both the plasma pharmacokinetics and the in vivo bioactivity of ARC594 the competition binding assay was used to assay the same plasma samples used to generate the pharmacokinetic data. Serial 1:10 dilutions of plasma sample were prepared in phosphate-buffered saline (1×PBS) and mixed with a fixed concentration of ^32P-ARC594, then added to human PDGF-BB. The final concentration of PDGF in each assay was 0.1 nM, and the final concentration of ^32P-ARC594<0.1 nM. In this experiment, the plasma samples were analyzed by comparison with a standard curve generated with samples of known ARC594 concentrations in 1×PBS.

U87 glioblastoma cells = assay: Clonogenic growth assay; assay type: cell-based
Description: U87 glioblastoma cells (ATCC) were grown in the presence or absence of mitogen as well as aptamer as shown in the panels. U87 cells were plated in DMEM/10% FBS to 50% confluency in 100 mm dishes. […] The addition of a final concentration of 50 ng/ml PDGF BB alone caused the appearance of highly connected three dimensional cell clusters. […] Thus, the aptamer blocks cell to cell adhesion of U87 cells which are known to have PDGF driven autocrine loops.

[4] = IV administration at 10 mg/kg in mice

Chain of PDGF BB (P01127 82-190 limits assumed): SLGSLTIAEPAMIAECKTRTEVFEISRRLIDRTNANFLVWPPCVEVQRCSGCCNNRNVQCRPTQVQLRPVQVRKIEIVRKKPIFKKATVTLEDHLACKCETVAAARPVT

Which “effect on tumor vasculature (confocal images)” value (Lewis lung carcinoma) does the source give for “5′-(SEQ ID NO.4)-HEG-(SEQ ID NO:5)-HEG-(SEQ ID NO:6)-3 (chain 1 CAGCGUACG; chain 2 CGTACCGATUCA; chain 3 TGAAGCUG; HEG spacers joining pieces; synthetic aptamer; modified_base (4)..(4) cytidine is 2′-fluoro; modified_base (5)..(5) gm; modified_base (6)..(6) uridine is 2′-fluoro; modified_base (8)..(8) cytidine is 2′-fluoro; modified_base (9)..(9) gm; modified_base (7)..(7) gm; modified_base (10)..(10) uridine is 2′-fluoro; modified_base (11)..(11) cytidine is 2′-fluoro; modified_base (12)..(12) adenosine is 2′-O-Methyl; modified_base (6)..(6) cytidine is 2′-fluoro; modified_base (7)..(7) uridine is 2′-fluoro; modified_base (8)..(8) gm) [ARC128, reference compound]” here?
Its value is “did not affect the tumor vasculature”.

Which “AUC” value ([1]; IP, 10 mg/kg in mice) does the source give for “5′-[40 K PEG]-(SEQ ID NO:1)-HEG-(SEQ ID NO:2)-HEG-(SEQ ID NO:3)-3′-dT-3′ (chain 1 CAGGCUACG; chain 2 CGTAGAGCAUCA; chain 3 TGATCCUG; piece 1: 2'-fluoro at 6, 8, 2'-O-methyl at 9, 5' {PEG40k}, 3' [HEG], other sugars and backbone not given here; piece 2: 2'-O-methyl at 5, 7, 12, 2'-fluoro at 10, 11, 3' [HEG], other sugars and backbone not given here; piece 3: 2'-fluoro at 5, 6, 7, 2'-O-methyl at 8, 3' [invdT], other sugars and backbone not given here) [ARC127]” here?
Its value is 143605.5 nM·h.

What about the “MRT” value ([1]; IP, 10 mg/kg in mice) of the same substance?
Its value is 11.231 h.

What about the “tmax” value ([1]; IP, 10 mg/kg in mice) of the same substance?
The value was 8 h.

What about the Cmax [1, 4] of the same substance?
Its Cmax is 61 µM.

And the “MRT” value [1, 4]?
Its value is 5.08 h.

What about the “Vs” value [1, 4] of the same substance?
Its value is 0.0001 L/kg.

What about the “AUC” value ([1]; IV, 10 mg/kg in mice) of the same substance?
Its value is 229686.8 nM·h.

And the “MRT” value ([1]; IV, 10 mg/kg in mice)?
Its value is 6.573 h.

What about the “tmax” value ([1]; IV, 10 mg/kg in mice) of the same substance?
The value was 2 h.

What about the “plasma concentration at 24 hrs post-dose” value ([1]; IV, IP or SC, 10 mg/kg in mice) of the same substance?
The value was ~1.

And the “AUC” value ([1]; SC, 10 mg/kg in mice)?
The value was 55030.91 nM·h.

And the “MRT” value ([1]; SC, 10 mg/kg in mice)?
The value was 16.632 h.

And the “tmax” value ([1]; SC, 10 mg/kg in mice)?
The value was 8 h.

What about the “systemic bioavailability, F” value ([1]; intraperitoneal (IP), 10 mg/kg in mice) of the same substance?
Its value is ~63%.

And the “systemic bioavailability, F” value ([1]; subcutaneous (SC), 10 mg/kg in mice)?
Its value is ~24%.

What about the “efficacy of irinotecan (rate of tumor growth)” value ([2]; Experiment 2: ARC127 50 mg/kg IP once daily + irinotecan 150 mg/kg weekly vs irinotecan alone) of the same substance?
The value was “enhanced the efficacy of irinotecan treatment”.

What about the dose-limiting side effects ([2]; in vivo experiments) of the same substance?
The dose-limiting side effects was “not evident”.

And the IC50 (PDGF)?
The IC50 was ≤ 2 nM.

What about the “concentration reducing the Luciferase signal to no mitogen levels” value (PDGF) of the same substance?
The value was 3 nM.

And the Cmax ([3]; ip)?
Its Cmax is 12.8 µM.

What about the “Vz” value ([3]; ip) of the same substance?
Its value is 0.078 L/kg.

And the “bioavailability, F” value ([3]; ip)?
Its value is 0.625.

And the “t1/2” value ([3]; ip)?
The value was 7.856 h.

And the Cmax ([3]; iv)?
The Cmax was 29.7 µM.

And the “Vz” value ([3]; iv)?
Its value is 0.053 L/kg.

And the “bioavailability, F” value ([3]; iv)?
The value was 1.000.

And the Cmax ([3]; sc)?
Its Cmax is 3.18 µM.

What about the “Vz” value ([3]; sc) of the same substance?
The value was 0.238 L/kg.

And the “bioavailability, F” value ([3]; sc)?
The value was 0.240.

What about the “t1/2” value ([3]; sc) of the same substance?
Its value is 9.176 h.

And the “active aptamer in plasma” value (PDGF BB)?
Its value is “present and active”.

What about the “proliferation rate of U87 cells (MTT assay)” value (U87 glioblastoma cells) of the same substance?
Its value is “no effect on proliferation rate”.

What about the “occurrence of three dimensional cell clusters” value (U87 glioblastoma cells; 50 ng/ml PDGF-BB plus ARC127) of the same substance?
The value was “reduced the occurrence of clusters to background level”.
